Measurements from ChEMBL document CHEMBL5154879, “Induction of Genes Implicated in Stress Response and Autophagy by a Novel Quinolin-8-yl-nicotinamide QN523 in Pancreatic Cancer” (J Med Chem, 2022).
The source made the active and inactive calls. No cut-off for these calls is given here.

Assays:
Format in all cases: functional, cell-based
MIA PaCa-2 [1] = test: Induction of autophagy in human MIA PaCa-2 cells assessed as accumulation of WIP11 marker gene expression at […] incubated for 72 hrs by Western blot analysis
MIA PaCa-2 [2] = test: Induction of autophagy in human MIA PaCa-2 cells assessed as accumulation of GABARAPL1 marker gene expression at […] incubated for 72 hrs by Western blot analysis
MIA PaCa-2 [3] = test: Cytotoxicity against human MIA PaCa-2 cells assessed as inhibition of cell growth incubated for 72 hrs by MTT assay; conditions: MIA PaCa-2, 72 h
MIA PaCa-2 [4] = test: Induction of autophagy in human MIA PaCa-2 cells assessed as accumulation of LC3B marker gene expression at […] incubated for 72 hrs by Western blot analysis

With CC1=C(CC(=O)O)c2cc(F)ccc2/C1=C\c1ccc([S+](C)[O-])cc1 (centres undefined) the Activity (MIA PaCa-2 [1]) was “Active”, the Activity (MIA PaCa-2 [2]) was “Active” and the IC50 (MIA PaCa-2 [3]) was 300 µM. For the same compound, the Activity (MIA PaCa-2 [4]) was “Active”.
